Our source for the EC50 values is PMC11968560 (Proteins, 2024).

In the test the target is T1, PfGrp94 (Plasmodium falciparum glucose-regulated protein 94 kDa, endoplasmin) (Plasmodium falciparum, UniProt Q8I0V4).
T1 sequence (Q8I0V4 22-821): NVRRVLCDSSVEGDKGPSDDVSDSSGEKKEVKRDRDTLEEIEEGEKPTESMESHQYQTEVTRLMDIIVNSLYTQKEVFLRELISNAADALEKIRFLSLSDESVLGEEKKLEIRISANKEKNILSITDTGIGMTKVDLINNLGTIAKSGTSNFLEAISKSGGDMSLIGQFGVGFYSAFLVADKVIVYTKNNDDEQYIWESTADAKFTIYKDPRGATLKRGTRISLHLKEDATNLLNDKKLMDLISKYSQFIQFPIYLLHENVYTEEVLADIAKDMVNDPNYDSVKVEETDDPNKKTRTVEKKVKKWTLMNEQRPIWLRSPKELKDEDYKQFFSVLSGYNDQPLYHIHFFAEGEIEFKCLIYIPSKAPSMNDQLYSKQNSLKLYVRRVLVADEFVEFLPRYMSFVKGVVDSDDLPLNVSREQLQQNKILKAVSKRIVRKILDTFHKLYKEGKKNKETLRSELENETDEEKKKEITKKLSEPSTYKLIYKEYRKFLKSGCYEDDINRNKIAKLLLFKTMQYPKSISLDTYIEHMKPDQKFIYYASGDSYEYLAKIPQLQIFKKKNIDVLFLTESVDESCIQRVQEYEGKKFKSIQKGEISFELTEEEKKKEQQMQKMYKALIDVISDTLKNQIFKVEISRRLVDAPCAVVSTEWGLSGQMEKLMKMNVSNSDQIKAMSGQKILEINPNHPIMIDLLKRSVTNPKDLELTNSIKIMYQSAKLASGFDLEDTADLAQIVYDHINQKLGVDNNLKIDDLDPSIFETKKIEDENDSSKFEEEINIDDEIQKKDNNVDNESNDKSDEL
The test can be described thus: malachite green ATPase inhibition. Format: biochemical.

As for `CCNC(=O)[C@H]1O[C@@H](n2cnc3c(N)ncnc32)[C@H](O)[C@@H]1O` [NECA], it took 3.53 ± 1.5 µM to reach a half-maximal effect (EC50).
